Experimental findings from US20260083865A1, “PROSTATE SPECIFIC MEMBRANE ANTIGEN (PSMA) LIGANDS AND USE THEREOF” (priority 2022, published 2026) are described below.

Read-outs that look alike come from different tables or passages of the source. Numbered stars: 1 amine (or outer) side, 2 acyl side, 3 side chain; on linkers, the order of the positions; unused ones are H or OH. Bridge positions count the residues as written; N and C are the ends. Square brackets hold non-standard residues; d marks the D form. Peptide text beside a SMILES is read from it. * marks the point of attachment. TtdsdLys(DOTA)NH2 = NC(=O)[C@@H](CCCCNC(=O)CN1CCN(CC(=O)O)CCN(CC(=O)O)CCN(CC(=O)O)CC1)NC(=O)CCC(=O)NCCCOCCOCCOCCCN*; X3 = O=C(O)CN1CCN(CC(=O)O)CCN(CC(=O)NCCCOCCOCCOCCCN*)CCN(CC(=O)O)CC1; DOTA = O=C(O)CN1CCN(CC(=O)O)CCN(CC(=O)*)CCN(CC(=O)O)CC1; Phe(4-Cl) = N[C@@H](Cc1ccc(Cl)cc1)C(=O)O; X1 = O=C(CC1CCN([*:1])CC1)[*:2]; Suc = O=C(CCC(=O)[*:2])[*:1]; Tle = CC(C)(C)[C@H](N)C(=O)O; 4Amb = NCc1ccc(C(=O)O)cc1; Isovaleryl = CC(C)CC(=O)*; Aib = CC(C)(N)C(=O)O; CO = O=C([*:1])[*:2]; NHBu = CCCCN*

Test [1] deals with T1, PSMA-expressing C4-2 cells (Homo sapiens, UniProt Q04609).
T1 construct: PSMA-expressing C4-2 cells (ATCC, Cat. No. CRL-3314) were cultured in RPMI-1640; host or cells: C4-2 cells
T1 sequence (Q04609 whole entry): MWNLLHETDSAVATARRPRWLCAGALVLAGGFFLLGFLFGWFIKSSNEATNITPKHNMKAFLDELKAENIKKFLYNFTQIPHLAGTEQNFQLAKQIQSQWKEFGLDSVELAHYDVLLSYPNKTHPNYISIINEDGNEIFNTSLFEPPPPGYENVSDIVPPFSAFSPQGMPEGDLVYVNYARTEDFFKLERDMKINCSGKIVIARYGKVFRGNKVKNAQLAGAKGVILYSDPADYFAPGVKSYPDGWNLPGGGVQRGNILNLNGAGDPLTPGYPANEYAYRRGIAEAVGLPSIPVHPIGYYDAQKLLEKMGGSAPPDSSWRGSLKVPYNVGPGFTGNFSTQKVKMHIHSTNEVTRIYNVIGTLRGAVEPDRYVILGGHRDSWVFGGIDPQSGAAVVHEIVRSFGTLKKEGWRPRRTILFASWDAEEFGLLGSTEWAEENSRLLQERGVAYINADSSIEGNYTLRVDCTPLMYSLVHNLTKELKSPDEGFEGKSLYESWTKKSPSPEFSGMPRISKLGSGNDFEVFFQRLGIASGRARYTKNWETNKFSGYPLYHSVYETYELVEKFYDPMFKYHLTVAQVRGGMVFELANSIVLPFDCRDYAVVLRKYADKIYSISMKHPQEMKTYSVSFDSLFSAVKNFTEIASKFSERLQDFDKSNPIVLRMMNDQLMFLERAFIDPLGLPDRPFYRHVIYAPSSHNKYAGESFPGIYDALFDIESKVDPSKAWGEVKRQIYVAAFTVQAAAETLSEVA
The test can be described thus: FACS binding assay (competition with 50 nM PSM-0183). The settings on record: read-out: pIC50 [C4-2] CAT (converted). The gist of the method:
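C4-2 cells were incubated 1 h at 4 °C with 50 nM AF488-labelled peptide PSM-0183 plus increasing test compound concentrations, then washed twice in ice-cold buffer. Median fluorescence in the AF488 channel was read by flow cytometry. IC50/pIC50 was derived by 4PL fitting of MFI versus concentration.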

The target in test [2] is T2, Fc-fusion protein of human PSMA (hPSMA-Fc) (Homo sapiens, UniProt Q04609).
T2 construct: purchased Acro Biosystems PSA-H5264
T2 sequence (Q04609 44-750 limits assumed): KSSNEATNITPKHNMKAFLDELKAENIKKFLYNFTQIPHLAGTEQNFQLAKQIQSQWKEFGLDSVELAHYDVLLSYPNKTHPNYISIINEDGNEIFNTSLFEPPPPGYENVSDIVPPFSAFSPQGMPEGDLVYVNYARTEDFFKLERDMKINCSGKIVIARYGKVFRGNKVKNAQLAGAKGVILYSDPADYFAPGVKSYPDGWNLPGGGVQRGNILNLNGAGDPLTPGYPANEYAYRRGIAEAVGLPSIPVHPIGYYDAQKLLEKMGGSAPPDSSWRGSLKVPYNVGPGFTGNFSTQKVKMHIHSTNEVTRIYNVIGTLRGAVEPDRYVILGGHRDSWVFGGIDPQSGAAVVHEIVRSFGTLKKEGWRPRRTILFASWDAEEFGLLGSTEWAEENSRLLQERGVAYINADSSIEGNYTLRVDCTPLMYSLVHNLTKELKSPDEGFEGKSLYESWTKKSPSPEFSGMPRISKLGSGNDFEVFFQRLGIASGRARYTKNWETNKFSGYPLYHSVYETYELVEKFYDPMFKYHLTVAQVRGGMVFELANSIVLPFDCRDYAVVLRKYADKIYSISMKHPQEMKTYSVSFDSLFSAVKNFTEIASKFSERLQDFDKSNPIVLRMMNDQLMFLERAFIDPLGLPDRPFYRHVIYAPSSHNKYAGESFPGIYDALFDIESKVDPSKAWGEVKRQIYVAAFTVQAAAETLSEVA
In words: Surface plasmon resonance assay (Biacore T200, single cycle kinetic). Format: binding. To be noted: read-out: pKD CAT (converted). The gist of the method: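 hPSMA-Fc was captured (~1000 RU) on an Fc-binding-peptide CM5 chip, and compounds were run in single cycle kinetic mode at 25° C in HBST with 0.1% DMSO. Double-blank-corrected sensorgrams were fitted to a 1:1 Langmuir model to give KD, reported as pKD.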

Where [3] appears, read: FACS binding, PSMA-expressing C4-2 cells, pIC50 category.
Where [4] appears, read: PSMA SPR assay, hPSMA-Fc, 25° C., pKD category.
The mark [5] stands for this setting: pIC50 category of FACS binding, C4-2 cells.
Setting [6] is: pKD category for PSMA SPR activity assay, hPSMA-Fc, 25° C.

Take `CC(=O)N[C@H](C(=O)NC(C)(C)C(=O)N[C@@H](Cc1ccccc1)C(=O)N[C@H]1CSSC[C@@H](C(=O)N[C@H](C(=O)N[C@H](C(=O)NCCCOCCOCCOCCCNC(=O)CCC(=O)N[C@H](CCCCNC(=O)CN2CCN(CC(=O)O)CCN(CC(=O)O)CCN(CC(=O)O)CC2)C(N)=O)[C@@H](C)O)C(C)(C)C)NC(=O)[C@H](CC(N)=O)NC(=O)C(C)(C)NC(=O)[C@H](CCC(N)=O)NC(=O)[C@H](CCCCN)NC1=O)[C@@H](C)O` [PSM-0303, Ac-Thr-Aib-Phe-[Cys-Lys-Gln-Aib-Asn-Cys]-Tle-Thr-Ttds-lys(DOTA)-NH2] (Ac-T[Aib]FCKQ[Aib]NC[Tle]T-{TtdsdLys(DOTA)NH2}; disulfide 4-9): the IC50 in test [1] (setting [3]) was 200 to 1260 nM. Further, the Kd in test [2] (setting [4]) is 12.6 to 126 nM.
For `CC(=O)NC(C)(C)C(=O)N[C@@H](Cc1ccccc1)C(=O)N[C@H]1CSSC[C@@H](C(=O)N[C@H](C(=O)N[C@H](C(=O)N[C@@H](CC(=O)O)C(N)=O)[C@@H](C)O)C(C)(C)C)NC(=O)[C@H](CC(N)=O)NC(=O)C(C)(C)NC(=O)[C@H](CCCNC(=N)N)NC(=O)[C@H](CCCCN)NC1=O` [PSM-0442, Ac-Aib-Phe-[Cys-Lys-Arg-Aib-Asn-Cys]-Tle-Thr-Asp-NH2] (Ac-[Aib]FCKR[Aib]NC[Tle]TD-NH2; disulfide 3-8), the IC50 in test [1] (setting [5]) was under 200 nM. Besides, the Kd in test [2] (setting [6]) was under 12.6 nM.
In the case of `CC(=O)N[C@H](C(=O)NC(C)(C)C(=O)N[C@@H](Cc1ccccc1)C(=O)N[C@H]1CSSC[C@@H](C(=O)N[C@H](C(=O)N[C@H](C(N)=O)[C@@H](C)O)C(C)(C)C)NC(=O)[C@H](CC(N)=O)NC(=O)[C@H](CCCCNC(=O)CN2CCN(CC(=O)O)CCN(CC(=O)O)CCN(CC(=O)O)CC2)NC(=O)[C@H](CCCNC(=N)N)NC(=O)[C@H](CCCCN)NC1=O)[C@@H](C)O` [PSM-0326, Ac-Thr-Aib-Phe-[Cys-Lys-Arg-Lys(DOTA)-Asn-Cys]-Tle-Thr-NH2] (Ac-T[Aib]FCKRK(DOTA)NC[Tle]T-NH2; disulfide 4-9), the IC50 in test [1] (setting [3]) was under 200 nM. Also, the Kd in test [2] (setting [4]) is 12.6 to 126 nM.
Regarding `CCCCNC(=O)[C@@H](NC(=O)[C@@H]1CSSC[C@H](NC(=O)[C@H](Cc2ccccc2)NC(=O)C(C)(C)NC(=O)[C@@H](NC(C)=O)[C@@H](C)O)C(=O)N[C@@H](CCCCN)C(=O)N[C@@H](CCCNC(=N)N)C(=O)NC(C)(C)C(=O)N[C@@H](CC(N)=O)C(=O)N1)C(C)(C)C` [PSM-0510, Ac-Thr-Aib-Phe-[Cys-Lys-Arg-Aib-Asn-Cys]-Tle-NHBu] (Ac-T[Aib]FCKR[Aib]NC[Tle]-NHBu; disulfide 4-9), the IC50 in test [1] (setting [5]) is under 200 nM. For the same compound, in test [2] (setting [6]), the Kd was under 12.6 nM.
Turning to `C[C@@H](O)[C@H](NC(=O)[C@@H](NC(=O)[C@@H]1CSSC[C@H](NC(=O)[C@H](Cc2ccccc2)NC(=O)C(C)(C)NC(=O)[C@@H](NC(=O)CCC(=O)NCCCOCCOCCOCCCNC(=O)CN2CCN(CC(=O)O)CCN(CC(=O)O)CCN(CC(=O)O)CC2)[C@@H](C)O)C(=O)N[C@@H](CCCCN)C(=O)N[C@@H](CCCNC(=N)N)C(=O)NC(C)(C)C(=O)N[C@@H](CC(N)=O)C(=O)N1)C(C)(C)C)C(N)=O` [PSM-0259, DOTA-Ttds-Thr-Aib-Phe-[Cys-Lys-Arg-Aib-Asn-Cys]-Tle-Thr-NH2] ({X3-Suc}-T[Aib]FCKR[Aib]NC[Tle]T-NH2; disulfide 4-9), the IC50 in test [1] (FACS binding, C4-2 cells, competition with 50 nM PSM-0183, category) is under 200 nM. For the same compound, in test [2] (SPR, hPSMA-Fc, single cycle kinetic, 25° C., category), the Kd was under 12.6 nM.
On to `CC(C)(NC(=O)c1ccc(CNC(=O)CN2CCN(CC(=O)O)CCN(CC(=O)O)CCN(CC(=O)O)CC2)cc1)C(=O)N[C@@H](Cc1ccc(Cl)cc1)C(=O)N[C@H]1CSSC[C@@H](C(=O)N[C@H](C(N)=O)C(C)(C)C)NC(=O)[C@H](CC(N)=O)NC(=O)C(C)(C)NC(=O)[C@H](CCCNC(=N)N)NC(=O)[C@H](CCCCN)NC1=O` [PSM-0381, DOTA-Pamb-Aib-Pcf-[Cys-Lys-Arg-Aib-Asn-Cys]-Tle-NH2] ({DOTA-4Amb}-[Aib][Phe(4-Cl)]CKR[Aib]NC[Tle]-NH2; disulfide 3-8), for which the IC50 in test [1] (setting [5]) was under 200 nM. Besides, the Kd in test [2] (setting [6]) is under 12.6 nM.
Taken in the same sequence, the figures for `CC(=O)N[C@H](C(=O)NC(C)(C)C(=O)N[C@@H](Cc1ccccc1)C(=O)N[C@H]1CSSC[C@@H](C(=O)N[C@H](C(=O)N[C@H](C(=O)NCc2ccc(C(=O)N[C@H](CCCCNC(=O)CN3CCN(CC(=O)O)CCN(CC(=O)O)CCN(CC(=O)O)CC3)C(N)=O)cc2)[C@@H](C)O)C(C)(C)C)NC(=O)[C@H](CC(N)=O)NC(=O)C(C)(C)NC(=O)[C@H](CCCNC(=N)N)NC(=O)[C@H](CCCCN)NC1=O)[C@@H](C)O` [PSM-0522, Ac-Thr-Aib-Phe-[Cys-Lys-Arg-Aib-Asn-Cys]-Tle-Thr-Pamb-lys(DOTA)-NH2] (Ac-T[Aib]FCKR[Aib]NC[Tle]T[4Amb][dK](DOTA)-NH2; disulfide 4-9) were under 200 nM and under 12.6 nM.
Take `CC(=O)NC(=N)NCCC[C@@H]1NC(=O)[C@H](CCCCN)NC(=O)[C@@H](NC(=O)[C@H](Cc2ccc(Cl)cc2)NC(=O)C(C)(C)NC(=O)[C@@H](NC(C)=O)[C@@H](C)O)CSSC[C@@H](C(=O)N[C@H](C(=O)N[C@H](C(N)=O)[C@@H](C)O)C(C)(C)C)NC(=O)[C@H](CC(N)=O)NC(=O)C(C)(C)NC1=O` [PSM-0569, Ac-Thr-Aib-Pcf-[Cys-Lys-Arg(Ac)-Aib-Asn-Cys]-Tle-Thr-NH2] (Ac-T[Aib][Phe(4-Cl)]CKR(Ac)[Aib]NC[Tle]T-NH2; disulfide 4-9): the IC50 in test [1] (FACS binding, C4-2 cells, category) was under 200 nM. Further, the Kd in test [2] (PSMA SPR assay, category) is under 12.6 nM.
Turning to `CC(=O)NC(C)(C)C(=O)N[C@@H](Cc1ccc(Cl)cc1)C(=O)N[C@H]1CSSC[C@@H](C(=O)N[C@H](C(=O)N[C@H](C(=O)N2CCC(CC(=O)N[C@H](CCCCNC(=O)CN3CCN(CC(=O)O)CCN(CC(=O)O)CCN(CC(=O)O)CC3)C(N)=O)CC2)[C@@H](C)O)C(C)(C)C)NC(=O)[C@H](CC(N)=O)NC(=O)C(C)(C)NC(=O)[C@H](CCCNC(=N)N)NC(=O)[C@H](CCCCN)NC1=O` [PSM-0349, Ac-Aib-Pcf-[Cys-Lys-Arg-Aib-Asn-Cys]-Tle-Thr-Cmp-lys(DOTA)-NH2] (Ac-[Aib][Phe(4-Cl)]CKR[Aib]NC[Tle]T[X1][dK](DOTA)-NH2; disulfide 3-8), the IC50 in test [1] (setting [3]) was under 200 nM. Also, in test [2] (setting [4]), the Kd is under 12.6 nM.
For the compound `CCCCNC(=O)N[C@H](C(=O)NC(C)(C)C(=O)N[C@@H](Cc1ccccc1)C(=O)N[C@H]1CSSC[C@@H](C(=O)N[C@H](C(=O)N[C@H](C(=O)N2CCC(CC(=O)N[C@H](CCCCNC(=O)CN3CCN(CC(=O)O)CCN(CC(=O)O)CCN(CC(=O)O)CC3)C(N)=O)CC2)[C@@H](C)O)C(C)(C)C)NC(=O)[C@H](CC(N)=O)NC(=O)C(C)(C)NC(=O)[C@H](CCCNC(=N)N)NC(=O)[C@H](CCCCN)NC1=O)[C@@H](C)O` [PSM-0484, nBuCAyl-Thr-Aib-Phe-[Cys-Lys-Arg-Aib-Asn-Cys]-Tle-Thr-Cmp-lys(DOTA)-NH2] ({NHBu-CO}-T[Aib]FCKR[Aib]NC[Tle]T[X1][dK](DOTA)-NH2; disulfide 4-9), the IC50 in test [1] (setting [5]) is under 200 nM. The Kd in test [2] (setting [6]) is under 12.6 nM.
With `CC(C)CC(=O)NC(C)(C)C(=O)N[C@@H](Cc1ccc(Cl)cc1)C(=O)N[C@H]1CSSC[C@@H](C(=O)N[C@H](C(=O)N[C@H](C(=O)N[C@H](CCCCNC(=O)CN2CCN(CC(=O)O)CCN(CC(=O)O)CCN(CC(=O)O)CC2)C(N)=O)[C@@H](C)O)C(C)(C)C)NC(=O)[C@H](CC(N)=O)NC(=O)C(C)(C)NC(=O)[C@H](CCCNC(=N)N)NC(=O)[C@H](CCCCN)NC1=O` [PSM-0444, Iva-Aib-Pcf-[Cys-Lys-Arg-Aib-Asn-Cys]-Tle-Thr-lys(DOTA)-NH2] (Isovaleryl-[Aib][Phe(4-Cl)]CKR[Aib]NC[Tle]T[dK](DOTA)-NH2; disulfide 3-8), in test [1] (setting [5]), the IC50 was under 200 nM. Also, the Kd in test [2] (setting [6]) was under 12.6 nM.
